PubChem BioAssay (NCI)
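Five compound concentrations were applied to cells in 96-well plates for 48 hours; endpoints were derived by simple linear interpolation of the resulting dose-response curve. TGI: total growth inhibition.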

Key:
Test in all cases: growth of human tumour cells (NCI), 48 h
UACC-257 melanoma = test system: UACC-257 melanoma
OVCAR-4 ovarian = test system: OVCAR-4 ovarian
CAKI-1 renal = test system: CAKI-1 renal
HCT-15 colon = test system: HCT-15 colon
SF-295 CNS = test system: SF-295 CNS
LOX IMVI melanoma = test system: LOX IMVI melanoma
SK-MEL-5 melanoma = test system: SK-MEL-5 melanoma
SR leukemia = test system: SR leukemia
DLD-1 colon = test system: DLD-1 colon
KM12 colon = test system: KM12 colon
HOP-18 NSCLC = test system: HOP-18 NSCLC
A549 NSCLC = test system: A549 NSCLC
SF-268 CNS = test system: SF-268 CNS
SNB-19 CNS = test system: SNB-19 CNS
ACHN renal = test system: ACHN renal
LXFL 529 NSCLC = test system: LXFL 529 NSCLC
RXF-631 renal = test system: RXF-631 renal
NCI-H460 lung = test system: NCI-H460 lung
SNB-75 CNS = test system: SNB-75 CNS
NCI-H23 lung = test system: NCI-H23 lung
SK-OV-3 ovarian = test system: SK-OV-3 ovarian
HOP-92 NSCLC = test system: HOP-92 NSCLC
HCT-116 colon = test system: HCT-116 colon
SW-620 colon = test system: SW-620 colon
SK-MEL-28 melanoma = test system: SK-MEL-28 melanoma
COLO 205 colon = test system: COLO 205 colon
A498 renal = test system: A498 renal
DMS 114 small cell lung = test system: DMS 114 small cell lung
NCI-H522 lung = test system: NCI-H522 lung
RXF 393 renal = test system: RXF 393 renal
DMS 273 small cell lung = test system: DMS 273 small cell lung
786-0 renal = test system: 786-0 renal
HL-60(TB) leukemia = test system: HL-60(TB) leukemia
SK-MEL-2 melanoma = test system: SK-MEL-2 melanoma
RPMI-8226 leukemia = test system: RPMI-8226 leukemia
KM20L2 colon = test system: KM20L2 colon
TK-10 renal = test system: TK-10 renal
OVCAR-5 ovarian = test system: OVCAR-5 ovarian
U251 CNS = test system: U251 CNS
HT29 colon = test system: HT29 colon
UACC-62 melanoma = test system: UACC-62 melanoma
EKVX NSCLC = test system: EKVX NSCLC
M19-MEL melanoma = test system: M19-MEL melanoma
NCI-H226 lung = test system: NCI-H226 lung
CCRF-CEM leukemia = test system: CCRF-CEM leukemia
MOLT-4 leukemia = test system: MOLT-4 leukemia
SN12C renal = test system: SN12C renal
HCC-2998 colon = test system: HCC-2998 colon
HOP-62 NSCLC = test system: HOP-62 NSCLC
UO-31 renal = test system: UO-31 renal
SNB-78 CNS = test system: SNB-78 CNS
XF 498 CNS = test system: XF 498 CNS
K-562 leukemia = test system: K-562 leukemia
OVCAR-8 ovarian = test system: OVCAR-8 ovarian
MALME-3M melanoma = test system: MALME-3M melanoma
M14 melanoma = test system: M14 melanoma
SF-539 CNS = test system: SF-539 CNS
OVCAR-3 ovarian = test system: OVCAR-3 ovarian

For `CN1NC(c2ccc(Cl)cc2)=C(C#N)C(=O)CC1c1ccccc1` (configuration not stated), the TGI (UACC-257 melanoma) was over 100 µM, the TGI (OVCAR-4 ovarian) was over 100 µM and the TGI (CAKI-1 renal) was over 100 µM. The TGI (HCT-15 colon) was over 100 µM, the TGI (SF-295 CNS) was over 100 µM and the TGI (LOX IMVI melanoma) was over 100 µM. It also gave a TGI (SK-MEL-5 melanoma) of over 100 µM, a TGI (SR leukemia) of over 100 µM and a TGI (DLD-1 colon) of over 100 µM. For the same molecule, the TGI (KM12 colon) was over 100 µM, the TGI (HOP-18 NSCLC) was over 100 µM and the TGI (A549 NSCLC) was over 100 µM. For the same molecule, the TGI (SF-268 CNS) was over 100 µM, the TGI (SNB-19 CNS) was over 100 µM and the TGI (ACHN renal) was over 100 µM. For the same molecule, the TGI (LXFL 529 NSCLC) was over 100 µM, the TGI (RXF-631 renal) was over 100 µM and the TGI (NCI-H460 lung) was over 100 µM. For the same molecule, the TGI (SNB-75 CNS) was over 100 µM, the TGI (NCI-H23 lung) was over 100 µM and the TGI (SK-OV-3 ovarian) was over 100 µM. It also gave a TGI (HOP-92 NSCLC) of over 100 µM, a TGI (HCT-116 colon) of over 100 µM and a TGI (SW-620 colon) of over 100 µM. The TGI (SK-MEL-28 melanoma) was over 100 µM, the TGI (COLO 205 colon) was over 100 µM and the TGI (A498 renal) was over 100 µM. It also gave a TGI (DMS 114 small cell lung) of over 100 µM, a TGI (NCI-H522 lung) of over 100 µM and a TGI (RXF 393 renal) of over 100 µM. For the same molecule, the TGI (DMS 273 small cell lung) was over 100 µM, the TGI (786-0 renal) was over 100 µM and the TGI (HL-60(TB) leukemia) was over 100 µM. For the same molecule, the TGI (SK-MEL-2 melanoma) was over 100 µM, the TGI (RPMI-8226 leukemia) was over 100 µM and the TGI (KM20L2 colon) was over 100 µM. For the same molecule, the TGI (TK-10 renal) was over 100 µM, the TGI (OVCAR-5 ovarian) was over 100 µM and the TGI (U251 CNS) was over 100 µM. For the same molecule, the TGI (HT29 colon) was over 100 µM.
Work on `COc1ccc(/C=C/C(=N\NC(=O)c2ccccc2)c2sc(Nc3ccc([N+](=O)[O-])cc3)nc2C)cc1OC` yielded a TGI (UACC-257 melanoma) of 28.1 µM, a TGI (UACC-62 melanoma) of 6.78 µM and a TGI (OVCAR-4 ovarian) of 36.9 µM. It also gave a TGI (EKVX NSCLC) of 91 µM, a TGI (M19-MEL melanoma) of 70.6 µM and a TGI (CAKI-1 renal) of 32.8 µM. For the same molecule, the TGI (HCT-15 colon) was 28.5 µM, the TGI (NCI-H226 lung) was 44.7 µM and the TGI (SF-295 CNS) was 26.5 µM. The TGI (LOX IMVI melanoma) was 15.9 µM, the TGI (SR leukemia) was over 100 µM and the TGI (DLD-1 colon) was 28.8 µM. For the same molecule, the TGI (KM12 colon) was 47.5 µM, the TGI (HOP-18 NSCLC) was 85 µM and the TGI (A549 NSCLC) was 28.9 µM. It also gave a TGI (CCRF-CEM leukemia) of over 100 µM, a TGI (SF-268 CNS) of 33.5 µM and a TGI (SNB-19 CNS) of 32.5 µM. For the same molecule, the TGI (MOLT-4 leukemia) was over 100 µM, the TGI (SN12C renal) was over 100 µM and the TGI (HCC-2998 colon) was over 100 µM. It also gave a TGI (ACHN renal) of 41.8 µM, a TGI (LXFL 529 NSCLC) of 24.3 µM and a TGI (HOP-62 NSCLC) of 49.9 µM. For the same molecule, the TGI (NCI-H460 lung) was 41.2 µM, the TGI (SNB-75 CNS) was 17.8 µM and the TGI (SK-OV-3 ovarian) was over 100 µM. The TGI (HOP-92 NSCLC) was 6.41 µM, the TGI (HCT-116 colon) was over 100 µM and the TGI (UO-31 renal) was 56.6 µM. The TGI (SW-620 colon) was over 100 µM, the TGI (SK-MEL-28 melanoma) was 47.2 µM and the TGI (SNB-78 CNS) was 61.9 µM. The TGI (COLO 205 colon) was over 100 µM, the TGI (XF 498 CNS) was 29.5 µM and the TGI (K-562 leukemia) was over 100 µM. It also gave a TGI (OVCAR-8 ovarian) of 27 µM, a TGI (DMS 114 small cell lung) of 62.7 µM and a TGI (NCI-H522 lung) of 17.4 µM. For the same molecule, the TGI (RXF 393 renal) was 52.5 µM, the TGI (DMS 273 small cell lung) was 54.6 µM and the TGI (MALME-3M melanoma) was 43.1 µM. The TGI (M14 melanoma) was 28.9 µM, the TGI (786-0 renal) was 26.5 µM and the TGI (SK-MEL-2 melanoma) was 33 µM. It also gave a TGI (SF-539 CNS) of 69.8 µM, a TGI (KM20L2 colon) of 97.6 µM and a TGI (OVCAR-3 ovarian) of 61.5 µM. The TGI (TK-10 renal) was 66.5 µM, the TGI (OVCAR-5 ovarian) was over 100 µM and the TGI (U251 CNS) was 18.6 µM. It also gave a TGI (HT29 colon) of over 100 µM.
